The results in this text go back to US9657046B2, “Methods for the treatment and prevention of inflammatory diseases” (Children's Medical Center Corporation, priority 2010, dated 2017).

One test deals with human NKT cell lines. Nature of the test: Human NKT cell lines, IFN-γ and IL-4 production. The note with it: PI57 10 μg/ml, 48 hours in vitro. Type of test: cell-based. The protocol:
(§1) In FIG. 7A, NKT cell lines were cocultured with BM-derived DCs (BMDCs) and α-GalCer (100 ng/ml), PI57 (10 μg/ml), or vehicle for 48 hours, with or without pre-incubation with anti-CD1d (10 μg/ml). IFN-γ was measured by ELISA. In FIG. 7B, murine NKT cell lines were cocultured as in 7A with BMDCs from WT, Cd1d^−/−, Myd88^−/−, or Trif^−/− mice. Cells were treated with α-GalCer (100 ng/ml), PI57 (2.5, 5, or 10 μg/ml), PBS30 (1, 2.5, or 5 μg/ml), or vehicle for 48 hours. IFN-γ and IL-4 were measured by ELISA. […] In FIG. 7D, mouse NKT cell lines were stained with PE-labeled CD1d tetramers of PI57 or α-GalCer at 4° C. for 45 minutes or 37° C. for 25 minutes, and with anti-TCRβ-APC antibody. Top: Lymphocytes were gated in the FSC/SSC window. Bottom: Percentage of CD1d tetramer+ cells. […] In FIG. 7G, CD1d Fc-coated Maxisorp plates were loaded with lipid and cultured with 5×10^4 NKT cells. IFN-γ was analyzed by ELISA after 24 hours. Data represent 3 or 5 independent experiments.
Human NKT cells were isolated from peripheral blood of normal volunteers, using a PE-conjugated anti-human NKT cell antibody (clone 6B11, which recognizes the CDR3 loop of the conserved Vα24 TCR found on iNKT cells) (BD Pharmingen) and anti-PE MACS beads (Miltenyi Biotec). Cells retained on the MACS column were then eluted. […]
Mouse or human IL-4 and IFN-γ levels were measured by ELISA, as previously described (20). […]

The subject of test [1] is invariant Vα14 NKT cell hybridomas. Nature of the test: Invariant Vα14 NKT cell hybridomas with glycolipid-loaded immobilized CD1d, IL-2. In kind it is cell-based, mouse. To be noted: immobilized recombinant CD1d loaded with glycolipid; three hybridomas (RT2, RT23, RT24). How it is done:
as §1
NKT cell hybridomas were established from C57BL/6 thymic NKT cells by fusion with thymoma BW5147 as previously described (61).
Culture wells were coated with recombinant CD1/β2m dimer proteins (Becton Dickinson) according to the manufacture's protocols. […] Cytokines in the culture supernatants were determined by ELISA.

For the next test, the system named is mouse NKT cell lines. Nature of the test: Staining of mouse NKT cell line with PI57-loaded CD1d tetramers. In kind it is binding. How it is done: as §1
To generate PI57 loaded mCD1d monomers, a 10-fold molar excess of PI57 in DMSO at 2 mg/ml was incubated with biotinylated-mCD1d (from the NIH Tetramer facility) in 2 mM CHAPS and 20 mM Tris pH7.0 overnight at room temperature. […]
Cells were preincubated with anti-Fey blocking mAb (2.4G2) and washed before staining. […] Cells were analyzed on a BDCanto flow cytometer (BD Biosciences) using FlowJo 8.3.3 software (Tree Star, Inc.).

Another test deals with NKT cell clone BM2a.3. Nature of the test: Human NKT cell clone BM2a.3 with CD1d-transfected cells, IFN-γ. In kind it is cell-based. How it is done: as §1
CD1d transfected K562 cells and CD1d restricted human NKT cell clone BM2a.3 were previously described (62). The anti-CD1d antibody (clone 12.1.1.1) experiments have been performed as described (63).

The next test concerns adult mice. Nature of the test: Ozone-exposure model, pre-treatment of adult mice. In kind it is in vivo, mouse. The note with it: pre-treatment prior to ozone-exposure.

SMILES strings stand for the structures.

Turning to `CCCCCCCCCCCCCC(=O)OC[C@H]1O[C@H](O[C@H]2CC[C@@]3(C)C(=CC[C@H]4[C@@H]5CC[C@H]([C@H](C)CCCC(C)C)[C@@]5(C)CC[C@@H]43)C2)[C@H](O)[C@@H](O)[C@@H]1O` [PI57, Cholesteryl 6-O-tetradecanoyl-α-D-glucopyranoside], the “activation of human NKT cell lines (IFN-γ and IL-4 production)” value with human NKT cell lines is recorded as “activated”. In test [1], the “IL-2 production by Vα14 NKT cell hybridomas” value is “produced IL-2”. The “fraction of PI57-CD1d tetramer+ cells that were CD4− (DN)” value with mouse NKT cell lines worked out at 92%. The “NKT cells in an NKT cell line stained by glycolipid-loaded CD1d tetramers” value with mouse NKT cell lines (4° C. for 45 minutes or 37° C. for 25 minutes) is reported as 10-23%. For the same molecule, the “response (IFN-γ production) of Vα24+ NKT cell clone BM2a.3” value in the test on NKT cell clone BM2a.3 is recorded as “responded to this glycolipid”. Besides, in the test on adult mice, the “airway hyperreactivity after ozone exposure” value is reported as “inhibit or suppress airway hyperreactivity”; the “lung inflammation after ozone exposure” value is “inhibit or suppress airway hyperreactivity and lung inflammation”.
